As a reminder, the melting point is the temperature, or range, at which the solid turns liquid. For orientation: inhibition means the share of the control response that was lost under treatment.

VEGFR-2, sequence (P35968 20-1356): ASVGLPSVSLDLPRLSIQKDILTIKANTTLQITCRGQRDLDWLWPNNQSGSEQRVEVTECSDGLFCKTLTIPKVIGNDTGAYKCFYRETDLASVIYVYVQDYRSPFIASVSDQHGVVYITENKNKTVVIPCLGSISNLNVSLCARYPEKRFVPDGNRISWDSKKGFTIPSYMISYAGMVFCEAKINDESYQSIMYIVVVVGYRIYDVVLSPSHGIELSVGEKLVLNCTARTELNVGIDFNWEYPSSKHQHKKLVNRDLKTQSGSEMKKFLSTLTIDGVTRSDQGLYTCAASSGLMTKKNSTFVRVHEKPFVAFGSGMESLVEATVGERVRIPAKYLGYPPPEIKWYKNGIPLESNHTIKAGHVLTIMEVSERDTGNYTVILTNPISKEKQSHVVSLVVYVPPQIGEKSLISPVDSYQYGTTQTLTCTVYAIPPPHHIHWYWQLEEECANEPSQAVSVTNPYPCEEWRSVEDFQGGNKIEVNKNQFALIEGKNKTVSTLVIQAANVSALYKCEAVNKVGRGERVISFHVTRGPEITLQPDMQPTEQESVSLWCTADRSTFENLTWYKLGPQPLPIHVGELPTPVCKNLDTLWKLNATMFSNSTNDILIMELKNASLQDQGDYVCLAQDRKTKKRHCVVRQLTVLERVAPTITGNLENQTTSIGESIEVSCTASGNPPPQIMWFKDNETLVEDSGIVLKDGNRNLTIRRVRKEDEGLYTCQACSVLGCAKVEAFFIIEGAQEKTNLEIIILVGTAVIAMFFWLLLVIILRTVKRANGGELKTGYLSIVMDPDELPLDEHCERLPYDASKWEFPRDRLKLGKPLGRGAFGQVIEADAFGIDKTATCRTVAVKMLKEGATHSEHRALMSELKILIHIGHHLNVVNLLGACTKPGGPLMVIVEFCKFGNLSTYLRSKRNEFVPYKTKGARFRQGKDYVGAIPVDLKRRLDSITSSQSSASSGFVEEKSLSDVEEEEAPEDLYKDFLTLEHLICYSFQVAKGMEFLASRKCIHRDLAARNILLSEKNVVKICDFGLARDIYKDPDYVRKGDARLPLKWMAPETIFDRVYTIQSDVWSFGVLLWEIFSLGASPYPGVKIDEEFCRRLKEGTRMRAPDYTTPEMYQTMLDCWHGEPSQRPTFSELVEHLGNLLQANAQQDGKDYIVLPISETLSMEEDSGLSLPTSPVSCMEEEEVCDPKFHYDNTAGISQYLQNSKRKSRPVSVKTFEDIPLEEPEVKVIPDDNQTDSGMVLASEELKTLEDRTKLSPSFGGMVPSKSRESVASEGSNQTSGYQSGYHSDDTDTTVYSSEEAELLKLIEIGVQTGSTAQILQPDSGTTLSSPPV

Tested on in the first data set: not given
Experiment: not given
Conditions: not given
As for `CCOC(=O)c1sc2ncnc(Nc3ccc(F)c(Cl)c3)c2c1C` [Compound 14d, Ethyl 4–(3-chloro-4-fluorophenylamino)-5-methylthieno[2,3-d]pyrimidine-6-carboxylate], the melting point was in the range of 154 to 156 °C. Molecule `CCOC(=O)CCNC(=O)c1sc2ncnc(Nc3ccc(NC(=O)Nc4cccc(C(F)(F)F)c4)cc3)c2c1C` [Compound 9c, Ethyl 3–(5-methyl-4–(4-(3(3(trifluoromethyl)phenyl)ureido)phenylamino)thieno[2,3-d]pyrimidine-6-carboxamido)propanoate] had a melting point of 220 °C. As for `CCOC(=O)CCCNC(=O)c1sc2ncnc(Nc3ccc(F)c(Cl)c3)c2c1C` [Compound 18d, Ethyl 4–(4-(3-chloro-4-fluorophenylamino)-5-methylthieno[2,3-d]pyrimidine-6-carboxamido)butanoate], the melting point is 131 to 133 °C. The molecule `CCOC(=O)c1sc2ncnc(Nc3ccc(NC(=S)Nc4ccccc4)cc3)c2c1C` [Compound 6d, Ethyl 5-methyl-4–(4-(3-phenylthioureido)phenylamino)thieno[2,3-d]pyrimidine-6-carboxylate] yielded a melting point of 173 to 175 °C. Still for that read-out and setting: to `CCOC(=O)c1sc2ncnc(Nc3ccc(NC(=O)Nc4ccccc4)cc3)c2c1C` [Compound 6a, Ethyl 5-methyl-4–(4-(3-phenylureido)phenylamino)thieno[2,3-d]pyrimidine-6-carboxylate] belongs 319 to 322 °C; to `CCOC(=O)CCCNC(=O)c1sc2ncnc(Nc3ccc(Cl)cc3)c2c1C` [Compound 18c, Ethyl 4–(4-(4-chlorophenylamino)-5-methylthieno[2,3-d]pyrimidine-6-carboxamido)butanoate], 138 °C; to `CCOC(=O)CCNC(=O)c1sc2ncnc(Nc3ccc(Cl)cc3)c2c1C` [Compound 17c], 202 °C. Still for that read-out and setting: with `CCOC(=O)CCCNC(=O)c1sc2ncnc(Nc3ccc(NC(=O)Nc4cccc(C(F)(F)F)c4)cc3)c2c1C` [Compound 10c, Ethyl 4–(5-methyl-4–(4-(3–(3(trifluoromethyl)phenyl)ureido)phenylamino)thieno[2,3-d]pyrimidine-6-carboxamido)butanoate] the figure was 197 to 199 °C. Molecule `CCOC(=O)CCNC(=O)c1sc2ncnc(Nc3ccc(F)c(Cl)c3)c2c1C` [Compound 17d, Ethyl 3–(4-(3-chloro-4-fluorophenylamino)-5-methylthieno[2,3-d]pyrimidine-6-carboxamido)propanoate] displayed a melting point of 184 °C.

In the case of `CCOC(=O)CCCNC(=O)c1sc2ncnc(Nc3ccc(NC(=O)Nc4ccccc4)cc3)c2c1C` [Compound 10a, Ethyl 4–(5-methyl-4–(4-(3-phenylureido)phenylamino)thieno[2,3-d]pyrimidine-6-carboxamido)butanoate], the melting point lay within 219 to 221 °C. The molecule `CCOC(=O)c1sc2ncnc(Nc3ccc(Cl)cc3)c2c1C` [Compound 14c, Ethyl 4–(4-chlorophenylamino)-5-methylthieno[2,3-d]pyrimidine-6-carboxylate] registered a melting point of 174 to 176 °C. Still for that read-out and setting: to `CCOC(=O)c1sc2ncnc(Nc3ccc(NC(=O)Nc4cccc(OC)c4)cc3)c2c1C` [Compound 6b, Ethyl 4–(4-(3–(3-methoxyphenyl)ureido)phenylamino)-5-methylthieno[2,3-d]pyrimidine-6-carboxylate] belongs 220 to 222 °C. Consider `CCOC(=O)c1sc2ncnc(Nc3ccc4[nH]cnc4c3)c2c1C` [Compound 14a, Ethyl 4-(1H-benzo[d]imidazol-5-ylamino)-5-methylthieno[2,3-d]pyrimidine-6-carboxylate.], for which the melting point is 250 to 251 °C. The same measure, in the same setting: to `CCOC(=O)c1sc2ncnc(Nc3ccc(NC(=O)Nc4cccc(C(F)(F)F)c4)cc3)c2c1C` [Compound 6c, Ethyl 4–(4-(3–(3-trifluromethyphenyl)ureido)phenylamino)-5-methylthieno[2,3-d]pyrimidine-6-carboxylate] belongs 305 to 307 °C; to `CCOC(=O)CCNC(=O)c1sc2ncnc(Nc3ccc(NC(=O)Nc4cccc(OC)c4)cc3)c2c1C` [Compound 9b, Ethyl 3–(4-(4–(3-(3-methoxyphenyl)ureido)phenylamino)-5-methylthieno[2,3-d]pyrimidine-6-carboxamido)propanoate], 250 °C; to `CCOC(=O)CCNC(=O)c1sc2ncnc(Nc3ccccc3)c2c1C` [Compound 17b, Ethyl 3–(5-methyl-4-(phenylamino)thieno[2,3-d]pyrimidine-6-carboxamido)propanoate], 206 °C. Same read-out and setting: to `CCOC(=O)c1sc2ncnc(Nc3ccccc3)c2c1C` [Compound 14b, Ethyl 5-methyl-4-(phenylamino)thieno[2,3-d]pyrimidine-6-carboxylate] belongs 170 to 172 °C; to `CCOC(=O)CCCNC(=O)c1sc2ncnc(Nc3ccccc3)c2c1C` [Compound 18b, Ethyl 4–(5-methyl-4-(phenylamino)thieno[2,3-d]pyrimidine-6-carboxamido)butanoate], 145 to 147 °C.

For a further data set, the target named is VEGFR-2 (Homo sapiens, UniProt P35968). In words: In vitro VEGFR-2 tyrosine kinase inhibitory assay (Z'-LYTE, SelectScreen). It counts as biochemical. The settings on record: 10 µM single dose. How it is done:
The target compounds were evaluated for their in vitro inhibitory activities against EGFR, VEGFR-2, and HDAC6. The EGFR and VEGFR-2 inhibitory assays were performed at Thermo Fischer Scientific, Madison, WI, USA (SelectScreenServices@thermofisher.com). The HDAC inhibitory assays were performed at BPS Bioscience, San Diego, CA, USA (www.bpsbioscience.com). Initially, all of the synthesised target compounds were evaluated for their percent inhibitory activity against EGFR, VEGFR-2, and HDACs at 10 µM single dose concentration, in which their mean percent inhibition is summarised in (Figure 5, Tables 1 and [2]). Representative compounds were evaluated for their percent inhibitory activity against EGFR and VEGFR-2 at 6 different concentrations (0.1 nM, 1 nM, 10 nM, 100 nM, 1 µM, 10 µM) to subsequently calculate their IC50 values (Table 3). Additionally, all of the synthesised target compounds were submitted to the National Cancer Institute “NCI” Bethesda, Maryland, USA (www.dtp.nci.nih.gov), to evaluate theirs in vitro antiproliferative activities against NCI 60- cancer cell line panel.
In vitro enzyme inhibition determination for the synthesised compounds was carried out in Thermo Fischer Scientific, Madison, WI, USA (SelectScreenServices@thermofisher.com). The EGFR and VEGFR-2 tyrosine kinase % inhibitory activity at a single-dose concentration of 10 µM was performed initially then representative compounds were evaluated at single-dose concentrations of (0.1 nM, 1 nM, 10 nM, 100 nM, 1 µM) using ZYLTE technology. A fluorescence-based, coupled-enzyme format is employed in the biochemical assay and depends on the sensitivity of proteolytic cleavage to non-phosphorylated and phosphorylated peptides. Then IC50 values for selected compounds were determined by GraphPad Prism at Misr international university.
In the case of `CCOC(=O)CCNC(=O)c1sc2ncnc(Nc3ccc(Cl)cc3)c2c1C` [Compound 17c], the inhibition at 10 µM amounted to 87%.

Source of the values: publication PMC8253220, “Molecular design, synthesis and in vitro biological evaluation of thienopyrimidine–hydroxamic acids as chimeric kinase HDAC inhibitors: a challenging approach to combat cancer” (Journal of Enzyme Inhibition and Medicinal Chemistry, 2021).
